System: compound-treated mice
Test: Neuropharmacological assay (SmartCube): behavioral activity signature and minimal effective dose
Format: in vivo
Details: for minimal effective dose: Mus musculus, ip, read-out: Potency: minimal effective dose (MED), binned; for AD: ADHD (probability of activity signature) / AG: analgesic (probability of activity signature) / AX: anxiolytic (probability of activity signature) / CE: cognitive enhancer (probability of activity signature) / DP: anti-depressant (probability of activity signature) / MS: mood stabilizer (probability of activity signature) / PS: anti-psychotic (probability of activity signature) / SD: sedative hypnotic (probability of activity signature) / UN: uncharacterized CNS activity (probability of activity signature): i.p. 15 min before test, most efficacious dose(s)
Procedure, shortened: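 Mice dosed i.p. 15 min before test, compound in N-methyl-2-pyrrolidone/PEG/propylene glycol, 3 doses; video-captured behavior matched to reference-drug signatures, giving per-class probabilities at most efficacious dose. MED from doses typically 0.3–30 mpk, defined as lowest dose with ≥50% total activity.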

[1] = MED = dose having 50% or more total activity

SMILES | minimal effective dose [1] [mg/kg] | AD: ADHD (probability of activity signature) | AG: analgesic (probability of activity signature) | AX: anxiolytic (probability of activity signature) | CE: cognitive enhancer (probability of activity signature) | DP: anti-depressant (probability of activity signature) | MS: mood stabilizer (probability of activity signature) | PS: anti-psychotic (probability of activity signature) | SD: sedative hypnotic (probability of activity signature) | UN: uncharacterized CNS activity (probability of activity signature) | Potency: minimal effective dose (MED), binned [1]
CC[C@H]1OCc2ccc(F)cc2[C@@H]1N [Example 181] | < 3 | + (LOQ ≤ + <5%) | ++ (5% ≤ ++ <25%) | ++ (5% ≤ ++ <25%) | ++ (5% ≤ ++ <25%) | + (LOQ ≤ + <5%) | + (LOQ ≤ + <5%) | ++ (5% ≤ ++ <25%) | +++ (25% ≤ +++ <50%) | ++++ (50% ≤ ++++) | –
CC[C@@H]1OCc2ccc(F)cc2[C@H]1N [Example 182] | < 3 | + (LOQ ≤ + <5%) | + (LOQ ≤ + <5%) | ++ (5% ≤ ++ <25%) | ++ (5% ≤ ++ <25%) | ++ (5% ≤ ++ <25%) | + (LOQ ≤ + <5%) | +++ (25% ≤ +++ <50%) | + (LOQ ≤ + <5%) | ++++ (50% ≤ ++++) | –
C[C@H]1OCc2ccc(F)cc2[C@@H]1N [Example 183] | < 3 | + (LOQ ≤ + <5%) | ++ (5% ≤ ++ <25%) | ++ (5% ≤ ++ <25%) | ++ (5% ≤ ++ <25%) | ++ (5% ≤ ++ <25%) | + (LOQ ≤ + <5%) | ++ (5% ≤ ++ <25%) | ++ (5% ≤ ++ <25%) | ++++ (50% ≤ ++++) | –
C[C@@H]1OCc2ccc(F)cc2[C@H]1N [Example 184] | – | + (LOQ ≤ + <5%) | + (LOQ ≤ + <5%) | ++ (5% ≤ ++ <25%) | ++ (5% ≤ ++ <25%) | ++ (5% ≤ ++ <25%) | + (LOQ ≤ + <5%) | ++ (5% ≤ ++ <25%) | + (LOQ ≤ + <5%) | ++++ (50% ≤ ++++) | A (≤3 mpk)
C[C@@H]1OCc2ccc(F)cc2[C@@H]1N [Example 185] | < 3 | + (LOQ ≤ + <5%) | ++ (5% ≤ ++ <25%) | +++ (25% ≤ +++ <50%) | ++ (5% ≤ ++ <25%) | + (LOQ ≤ + <5%) | + (LOQ ≤ + <5%) | ++ (5% ≤ ++ <25%) | + (LOQ ≤ + <5%) | ++++ (50% ≤ ++++) | –
C[C@H]1OCc2ccc(F)cc2[C@H]1N [Example 186] | 3 to 10 | + (LOQ ≤ + <5%) | ++ (5% ≤ ++ <25%) | ++ (5% ≤ ++ <25%) | ++ (5% ≤ ++ <25%) | ++ (5% ≤ ++ <25%) | + (LOQ ≤ + <5%) | ++ (5% ≤ ++ <25%) | + (LOQ ≤ + <5%) | +++ (25% ≤ +++ <50%) | –
CC[C@@H]1OCc2ccc(F)cc2[C@@H]1N [Example 187] | < 3 | + (LOQ ≤ + <5%) | ++ (5% ≤ ++ <25%) | ++ (5% ≤ ++ <25%) | ++ (5% ≤ ++ <25%) | + (LOQ ≤ + <5%) | + (LOQ ≤ + <5%) | +++ (25% ≤ +++ <50%) | + (LOQ ≤ + <5%) | ++++ (50% ≤ ++++) | –
CC[C@H]1OCc2ccc(F)cc2[C@H]1N [Example 188] | < 3 | + (LOQ ≤ + <5%) | ++ (5% ≤ ++ <25%) | ++ (5% ≤ ++ <25%) | + (LOQ ≤ + <5%) | ++ (5% ≤ ++ <25%) | + (LOQ ≤ + <5%) | ++ (5% ≤ ++ <25%) | + (LOQ ≤ + <5%) | ++++ (50% ≤ ++++) | –
Cc1ccc2c(c1)CO[C@@H](C)[C@H]2N [Example 189] | 10 to 30 | + (LOQ ≤ + <5%) | ++ (5% ≤ ++ <25%) | ++ (5% ≤ ++ <25%) | ++ (5% ≤ ++ <25%) | ++ (5% ≤ ++ <25%) | + (LOQ ≤ + <5%) | ++ (5% ≤ ++ <25%) | + (LOQ ≤ + <5%) | +++ (25% ≤ +++ <50%) | –
Cc1ccc2c(c1)CO[C@H](C)[C@@H]2N [Example 190] | 3 to 10 | + (LOQ ≤ + <5%) | + (LOQ ≤ + <5%) | ++ (5% ≤ ++ <25%) | ++ (5% ≤ ++ <25%) | + (LOQ ≤ + <5%) | + (LOQ ≤ + <5%) | ++ (5% ≤ ++ <25%) | ++ (5% ≤ ++ <25%) | ++++ (50% ≤ ++++) | –
C[C@@H]1OCc2ccc(Cl)cc2[C@@H]1N.Cl [Example 194] | 3 to 10 | + (LOQ ≤ + <5%) | ++ (5% ≤ ++ <25%) | ++ (5% ≤ ++ <25%) | ++ (5% ≤ ++ <25%) | ++ (5% ≤ ++ <25%) | + (LOQ ≤ + <5%) | ++ (5% ≤ ++ <25%) | + (LOQ ≤ + <5%) | ++++ (50% ≤ ++++) | –
